Test results reported in patent US20240199605A1, “SMALL MOLECULAR INHIBITORS OF NF-kB INDUCING KINASE” (Janssen Pharmaceutica NV, priority 2019, published 2024).

Assays:
[1] = tested on: p-IKKα levels in L363 (NIK translocated multiple myeloma) cells; test: Effect of compounds on p-IKKα levels in L363 cells (AlphaLISA SureFire Ultra); type: cell-based, human; details: Homo sapiens, L-363, 6 h, BAFF stimulated, MG132, 6 h, average of values, read-out: Assay 2 IC50
Procedure, shortened: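 Inhibition of p-IKKα (Ser176/180) read by AlphaLISA after 6 h, 37 °C compound exposure (11-point 1:3 series, 0.3% DMSO) of L363 cells pre-incubated overnight ± 250 ng/ml BAFF and plated ± BAFF ± 10 μM MG132. Normalised to BAFF/MG132/DMSO and unstimulated controls; IC50 by sigmoidal fitting, duplicates.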

[2] = target: recombinant human NF-kappaB-inducing kinase (NIK/MAP3K14) (Homo sapiens (Human), UniProt Q99558); test: Inhibition of auto-phosphorylation of recombinant human NIK/MAP3K14 (AlphaScreen); type: biochemical; details: NIK auto-phosphorylation, 5 μM ATP, 1 nM NIK, 2 h at 25° C.; average of values
Procedure, shortened: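 AlphaScreen read-out (anti-phospho-IKK Ser176/180 antibody, Protein A acceptor and glutathione donor beads) of NIK auto-phosphorylation. Reaction: 1 nM enzyme, 5 μM ATP, Tris pH 7.5 buffer with Mg2+ and vanadate, 2 h at 25° C., final DMSO 0.7%. IC50 came from a sigmoidal curve fit.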

Sequence of recombinant human NF-kappaB-inducing kinase (NIK/MAP3K14) (Q99558 whole entry): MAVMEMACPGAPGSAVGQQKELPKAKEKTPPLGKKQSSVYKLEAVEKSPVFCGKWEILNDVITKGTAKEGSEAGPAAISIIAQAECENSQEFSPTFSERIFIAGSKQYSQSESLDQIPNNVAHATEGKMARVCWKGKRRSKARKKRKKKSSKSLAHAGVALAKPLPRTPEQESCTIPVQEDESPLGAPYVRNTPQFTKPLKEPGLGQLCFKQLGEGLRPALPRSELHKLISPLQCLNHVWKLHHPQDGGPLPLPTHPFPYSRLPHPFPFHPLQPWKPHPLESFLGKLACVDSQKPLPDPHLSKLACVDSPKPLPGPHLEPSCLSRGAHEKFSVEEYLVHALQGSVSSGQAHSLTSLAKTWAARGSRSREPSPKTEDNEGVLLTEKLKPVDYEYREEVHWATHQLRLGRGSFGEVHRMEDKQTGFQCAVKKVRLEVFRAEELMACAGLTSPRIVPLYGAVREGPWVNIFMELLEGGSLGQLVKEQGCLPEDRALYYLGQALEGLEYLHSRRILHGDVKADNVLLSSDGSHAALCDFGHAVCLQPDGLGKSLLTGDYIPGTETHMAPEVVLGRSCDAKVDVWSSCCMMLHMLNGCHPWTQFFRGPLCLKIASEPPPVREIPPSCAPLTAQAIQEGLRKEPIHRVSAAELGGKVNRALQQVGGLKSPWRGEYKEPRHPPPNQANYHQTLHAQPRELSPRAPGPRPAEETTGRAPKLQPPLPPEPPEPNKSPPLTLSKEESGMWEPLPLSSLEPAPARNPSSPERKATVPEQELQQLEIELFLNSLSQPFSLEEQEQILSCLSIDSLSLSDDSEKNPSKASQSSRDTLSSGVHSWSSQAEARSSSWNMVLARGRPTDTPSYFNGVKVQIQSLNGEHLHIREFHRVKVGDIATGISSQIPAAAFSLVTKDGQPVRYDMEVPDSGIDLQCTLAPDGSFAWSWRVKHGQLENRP

IC50 [1]	IC50 [2]	SMILES
14 nM	2.9 nM	C=Cc1cc(-c2cccc(C#C[C@]3(O)CCN(C)C3=O)c2)nc2c(N)ncnc12 [Example 314, (R)-3-((3-(4-Amino-8-vinylpyrido[3,2-d]pyrimidin-6-yl)phenyl)ethynyl)-3-hydroxy-1-methylpyrrolidin-2-one]
11 nM	0.8 nM	CN1CC[C@@](O)(C#Cc2cccc(-c3cc(-c4ccco4)c4ncnc(N)c4n3)c2)C1=O [Example 312, (R)-3-((3-(4-Amino-8-(furan-2-yl)pyrido[3,2-d]pyrimidin-6-yl)phenyl)ethynyl)-3-hydroxy-1-methylpyrrolidin-2-one]
28 nM	0.7 nM	Cc1ccc(C#C[C@]2(O)CCN(C)C2=O)cc1-c1ccc2ncnc(N)c2n1 [Example 3, (R)-3-[2-[3-(4-Aminopyrido[3,2-d]pyrimidin-6-yl)-4-methyl-phenyl]ethynyl]-3-hydroxy-1-methyl-pyrrolidin-2-one]
> 5000 nM	1730 nM	Nc1nccc2cnc(-c3cccc(C#CC4(O)CCN(CC(F)(F)F)C4=O)c3)nc12 (stereo in doubt) [Example 73, (S)-3-[2-[3-(8-Aminopyrido[3,4-d]pyrimidin-2-yl)phenyl]ethynyl]-3-hydroxy-1-(2,2,2-trifluoroethyl)pyrrolidin-2-one]
> 5000 nM	1510 nM	CN1CC[C@@](O)(C#Cc2cccc(-c3ccc4ncnc(C#N)c4n3)c2)C1=O [Example 279, (R)-6-(3-((3-Hydroxy-1-methyl-2-oxopyrrolidin-3-yl)ethynyl)phenyl)pyrido[3,2-d]pyrimidine-4-carbonitrile]
3790 nM	23 nM	CNC(=O)C1CN(c2ncnc3ccc(-c4cccc(C#C[C@]5(O)CCN(C)C5=O)c4)nc23)C1 [Example 246, (R)-1-(6-(3-((3-Hydroxy-1-methyl-2-oxopyrrolidin-3-yl)ethynyl)phenyl)pyrido[3,2-d]pyrimidin-4-yl)-N-methylazetidine-3-carboxamide]
47 nM	0.9 nM	CN1CC[C@@](O)(C#Cc2cccc(-c3nc4c(N)nccc4s3)c2)C1=O [Example 116, (R)-3-((3-(4-Aminothiazolo[4,5-c]pyridin-2-yl)phenyl)ethynyl)-3-hydroxy-1-methylpyrrolidin-2-one]
